Where a name gives a salt, the structure may show the parent alone.
melting point | SMILES
227 °C | CC(C)n1c(=O)c(C(=O)NCC2CCN(CC3(O)CCOCC3)CC2)cc2c(Cl)cccc21
222 °C | Cc1cccc2c1cc(C(=O)NCC1CCN(CC3(O)CCOCC3)CC1)c(=O)n2C(C)C
275.7 °C | CC(C)n1c(=O)c(C(=O)NCC2CCN(CC3(O)CCOCC3)CC2)cc2c(F)cccc21 (as salt: hydrochloride)
240.7 °C | Cc1cccc2c1cc(C(=O)NCC1CCN(CC3CCNCC3)CC1)c(=O)n2C(C)C (as salt: hydrochloride)

— US7964727B2, “Quinolonecarboxylic acid compounds having 5-HT4 receptor agonistic activity” (Pfizer Inc., priority 2003, dated 2011)
